Results published in PubChem BioAssay AID1996.
≈ marks a conversion by molar mass, not a printed value.

Conditions: buffer; pH 7.4; 200.0 µM

Row | Structure (SMILES) | solubility kinetic [µg/mL]
1 | N#C/C(=C\c1ccccc1)C(=O)N1CCC(C(N)=O)CC1 | 40.1 (≈ 142 µM)
2 | CCN(CC)C1=C(Cl)C(=O)C(Cl)C12OCCO2 (stereo not given) | > 42
3 | O=C(NC(=S)Nc1ccccc1)C1CCCCC1 | 0.6 (≈ 2.29 µM)
4 | COc1ccc(CCC(=O)OCC(=O)NCc2ccc(OC)c(OC)c2)cc1OC | > 62.6
5 | Cc1cc(C)cc(NC(=O)CCN2C(=O)c3ccccc3C2=O)c1 | 2.5 (≈ 7.76 µM)
6 | CCC(=O)NC(c1ccccc1)c1c(O)ccc2ccccc12 (stereo not given) | 0.9 (≈ 2.95 µM)
7 | COc1cccc(OCc2nc(-c3ccc(Br)o3)no2)c1 | 7.1 (≈ 20.2 µM)
8 | CCC(C)[C@H](NC(=O)NCCCOC(C)C)C(=O)OC (stereo not given in full) | > 43.3
9 | Cc1cc2sc3nc(=O)n(-c4ccccc4)c(=O)n3c2cc1C | 5.8 (≈ 17.9 µM)
10 | Cc1cccc(CSc2[nH]c(=O)ncc2C)c1 | 15.7 (≈ 63.7 µM)
11 | Cc1cccc(-n2cnc(C(=O)N3CCN(C)CC3)c2)n1 | > 42.8
12 | Cc1ccccc1NC1=NC(=S)N(CC(N)=O)C12CCOC(C)(C)C2 (stereo not given) | > 54.1
13 | CCC1CCCCN1C(=O)COC(=O)COc1ccc(Br)cc1 (stereo not given) | > 57.6
14 | Cc1c(C)n(CCCN(C)C)c2ncnc(Nc3ccc(F)cc3)c12 | 48.7 (≈ 143 µM)
15 | Nn1c(SCC(=O)NCC2CCCO2)nnc1-c1ccco1 (stereo not given) | > 48.5
16 | COC(=O)c1ccc(OCC(=O)N2CCCc3ccccc32)cc1 | 45 (≈ 138 µM)
17 | COc1ccc(CC(=O)Nc2ccncc2Cl)cc1 | > 41.5
18 | Cc1cc(Nc2ccc([N+](=O)[O-])cc2)c2ccccc2n1 | 0.6 (≈ 2.15 µM)
19 | COc1ccc(C)cc1CN1C(=O)c2ccccc2C1=O | 4 (≈ 14.2 µM)
20 | Cc1c(C(=O)N2C[C@@H](C)O[C@@H](C)C2)oc2c(F)cccc12 | > 43.7

Row | Structure (SMILES) | solubility kinetic [µg/mL]
21 | O=C(Nc1ccc(Br)cc1)c1cc(-c2ccncc2)nc2ccccc12 | 5.8 (≈ 14.3 µM)
22 | CCCn1c(SCC(=O)NC2CCC(C)CC2)n[nH]c1=O (stereo not given) | > 46.9
23 | O=C(Nc1ccccc1)Nc1ccc2ccccc2c1 | < 0.3
24 | COc1cccc(OP(=O)(Nc2ccccc2)Oc2cccc(OC)c2)c1 | < 0.8
25 | O=C(Nc1ccc2c(c1)OCO2)C1CC(c2ccccc2O)=NO1 (stereo not given) | 1.4 (≈ 4.29 µM)
26 | COc1cccc(NC(=O)CN2C(=O)NC3(CCCCCC3)C2=O)c1 | > 51.8
27 | Cc1c(C)n(Cc2ccccc2)c2ncnc(NCCO)c12 | 41.2 (≈ 139 µM)
28 | Cc1cnc(C(=O)NC(Cc2ccccc2)c2ccccc2)cn1 (stereo not given) | 0.9 (≈ 2.84 µM)
29 | O=C(NCc1ccc(Cl)cc1)C1CCCO1 (stereo not given) | > 36
30 | COc1ccccc1C1(O)C(=O)Nc2ccc(C)cc21 (stereo not given) | > 40.4
31 | Cc1cc(F)ccc1S(=O)(=O)Nc1nc2ccccc2nc1Cl | > 52.8
32 | NC(=O)C1c2ccccc2Oc2ccccc21 | 24.8 (≈ 110 µM)
33 | CC(=O)Nc1cc(-c2nc3ccccc3o2)ccc1Cl | 1.6 (≈ 5.58 µM)
34 | Cc1cc(C)c(NC(=O)CSc2cccc[n+]2[O-])c(C)c1 | > 45.4
35 | COC(=O)c1ccccc1NC(=O)N1CCN(c2ccc(F)cc2)CC1 | 4.4 (≈ 12.3 µM)
36 | c1ccc2[nH]c(SCC3CCCCO3)nc2c1 (stereo not given) | > 37.3
37 | O=S(=O)(NCc1ccc(Cl)cc1)c1cccc2cccnc12 | 43.2 (≈ 130 µM)
38 | CC(CN1C(C)CCCC1C)OC(=O)c1ccccc1F.Cl (stereo not given) | > 49.5
39 | CN1C(C(=O)Nc2ncccn2)=C(O)c2ccccc2S1(=O)=O | > 49.8
40 | CN(CC(=O)NCCc1ccc(S(N)(=O)=O)cc1)CC(=O)Nc1ccc(F)c(F)c1F | > 68.8

Row | Structure (SMILES) | solubility kinetic [µg/mL]
41 | CCNC(=S)Nc1ccc2c(c1)oc1ccccc12 | 1.7 (≈ 6.29 µM)
42 | CCCCCc1c(C)[nH]c2nc3ccccc3n2c1=O | 0.3 (≈ 1.11 µM)
43 | COc1ccc(NC(=O)c2ccc3nc[nH]c3c2)cc1 | > 40.1
44 | Cc1ccc(Cl)cc1Nc1nc(-c2cccnc2)cs1 | 0.2 (≈ 0.663 µM)
45 | COc1ccc(C(=O)N2CCN(C(=O)C3CCCO3)CC2)cc1[N+](=O)[O-] (stereo not given) | > 54.5
46 | COc1ccc(CNC(=O)c2cc3ccccc3o2)cc1OC | > 46.7
47 | O=S(=O)(/C=C/c1cccc(Br)c1)N1CCOCC1 | 40 (≈ 120 µM)
48 | CCCN1CN=C(Nc2nc3ccccc3o2)NC1 | 18.9 (≈ 72.9 µM)
49 | Cc1ncoc1C(=O)Nc1ncc([N+](=O)[O-])s1 | > 38.1
50 | CCCCCN1C=CC=C/C1=C\C=C(C#N)C#N | 6.9 (≈ 28.8 µM)
51 | Cc1cccc(NS(=O)(=O)c2cc(Cl)ccc2Cl)n1 | > 47.6
52 | CN(C)C(=O)Oc1ccc(NC(=O)N2CCOCC2)cc1 | 43.9 (≈ 150 µM)
53 | COc1ccc2cc(C(N)=O)c(=Nc3ccc(C)cc3)oc2c1 | < 0.3
54 | COc1cc2ccccc2cc1C(=O)Nc1ccc(C)cn1 | < 0.3
55 | CCC(C)n1c(C)cc(C(N)=O)c1C (stereo not given) | 26.8 (≈ 138 µM)
56 | C=CCc1cccc(C=Nc2c[nH]c(=O)[nH]c2=O)c1O | 8.4 (≈ 31 µM)
57 | CCN(Cc1ccccc1)C(=O)c1cc2cc(OC)c(OC)cc2[nH]1 | < 0.4
58 | COC(=O)c1sccc1NC(=O)Nc1cccc(C)c1C | 8.1 (≈ 26.6 µM)
59 | COc1cc(OC)cc(C(=O)NCC(=O)OCC(=O)NCc2ccco2)c1 | > 56.5
60 | CC1CCN(C(=O)/C(=C\c2ccccc2)NC(=O)c2ccccc2)CC1 | 52.2 (≈ 150 µM)
